Assay results reported in PubChem BioAssay (NCI).
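Tested at 5 concentrations; 48 h exposure; 96-well plates; endpoints linearly interpolated, else capped at highest concentration. TGI: total growth inhibition.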

How the values were obtained:
Test in all cases: inhibition of tumour cell growth, NCI panel, 48 h
786-0 renal = system: 786-0 renal
A498 renal = system: A498 renal
A549 NSCLC = system: A549 NSCLC
ACHN renal = system: ACHN renal
BT-549 breast = system: BT-549 breast
CAKI-1 renal = system: CAKI-1 renal
CCRF-CEM leukemia = system: CCRF-CEM leukemia
COLO 205 colon = system: COLO 205 colon
DU-145 prostate = system: DU-145 prostate
EKVX NSCLC = system: EKVX NSCLC
HCC-2998 colon = system: HCC-2998 colon
HCT-116 colon = system: HCT-116 colon
HCT-15 colon = system: HCT-15 colon
HL-60(TB) leukemia = system: HL-60(TB) leukemia
HOP-62 NSCLC = system: HOP-62 NSCLC
HOP-92 NSCLC = system: HOP-92 NSCLC
HS 578T breast = system: HS 578T breast
HT29 colon = system: HT29 colon
IGROV1 ovarian = system: IGROV1 ovarian
K-562 leukemia = system: K-562 leukemia
KM12 colon = system: KM12 colon
LOX IMVI melanoma = system: LOX IMVI melanoma
M14 melanoma = system: M14 melanoma
MALME-3M melanoma = system: MALME-3M melanoma
MCF7 breast = system: MCF7 breast
MDA-MB-231 breast = system: MDA-MB-231 breast
MDA-MB-435 = system: MDA-MB-435
MDA-N = system: MDA-N
MOLT-4 leukemia = system: MOLT-4 leukemia
NCI-H226 lung = system: NCI-H226 lung
NCI-H23 lung = system: NCI-H23 lung
NCI-H460 lung = system: NCI-H460 lung
NCI-H522 lung = system: NCI-H522 lung
NCI/ADR-RES ovarian = system: NCI/ADR-RES ovarian
OVCAR-3 ovarian = system: OVCAR-3 ovarian
OVCAR-4 ovarian = system: OVCAR-4 ovarian
OVCAR-5 ovarian = system: OVCAR-5 ovarian
OVCAR-8 ovarian = system: OVCAR-8 ovarian
PC-3 prostate = system: PC-3 prostate
RPMI-8226 leukemia = system: RPMI-8226 leukemia
RXF 393 renal = system: RXF 393 renal
SF-268 CNS = system: SF-268 CNS
SF-295 CNS = system: SF-295 CNS
SF-539 CNS = system: SF-539 CNS
SK-MEL-2 melanoma = system: SK-MEL-2 melanoma
SK-MEL-28 melanoma = system: SK-MEL-28 melanoma
SK-MEL-5 melanoma = system: SK-MEL-5 melanoma
SK-OV-3 ovarian = system: SK-OV-3 ovarian
SN12C renal = system: SN12C renal
SNB-19 CNS = system: SNB-19 CNS
SNB-75 CNS = system: SNB-75 CNS
SR leukemia = system: SR leukemia
T-47D breast = system: T-47D breast
TK-10 renal = system: TK-10 renal
U251 CNS = system: U251 CNS
UACC-257 melanoma = system: UACC-257 melanoma
UACC-62 melanoma = system: UACC-62 melanoma
SW-620 colon = system: SW-620 colon
UO-31 renal = system: UO-31 renal
DLD-1 colon = system: DLD-1 colon
DMS 273 small cell lung = system: DMS 273 small cell lung
KM20L2 colon = system: KM20L2 colon
LXFL 529 NSCLC = system: LXFL 529 NSCLC
M19-MEL melanoma = system: M19-MEL melanoma
SNB-78 CNS = system: SNB-78 CNS

CCOC(CCNCC(OCC)OCC)OCC
TGI (786-0 renal): > 10 µM
TGI (A498 renal): > 10 µM
TGI (A549 NSCLC): > 10 µM
TGI (ACHN renal): > 10 µM
TGI (BT-549 breast): > 10 µM
TGI (CAKI-1 renal): > 10 µM
TGI (CCRF-CEM leukemia): > 10 µM
TGI (COLO 205 colon): > 10 µM
TGI (DU-145 prostate): > 10 µM
TGI (EKVX NSCLC): > 10 µM
TGI (HCC-2998 colon): > 10 µM
TGI (HCT-116 colon): > 10 µM
TGI (HCT-15 colon): > 10 µM
TGI (HL-60(TB) leukemia): > 10 µM
TGI (HOP-62 NSCLC): > 10 µM
TGI (HOP-92 NSCLC): > 10 µM
TGI (HS 578T breast): > 10 µM
TGI (HT29 colon): > 10 µM
TGI (IGROV1 ovarian): > 10 µM
TGI (K-562 leukemia): > 10 µM
TGI (KM12 colon): > 10 µM
TGI (LOX IMVI melanoma): > 10 µM
TGI (M14 melanoma): > 10 µM
TGI (MALME-3M melanoma): > 10 µM
TGI (MCF7 breast): > 10 µM
TGI (MDA-MB-231 breast): > 10 µM
TGI (MDA-MB-435): > 10 µM
TGI (MDA-N): > 10 µM
TGI (MOLT-4 leukemia): > 10 µM
TGI (NCI-H226 lung): > 10 µM
TGI (NCI-H23 lung): > 10 µM
TGI (NCI-H460 lung): > 10 µM
TGI (NCI-H522 lung): > 10 µM
TGI (NCI/ADR-RES ovarian): > 10 µM
TGI (OVCAR-3 ovarian): > 10 µM
TGI (OVCAR-4 ovarian): > 10 µM
TGI (OVCAR-5 ovarian): > 10 µM
TGI (OVCAR-8 ovarian): > 10 µM
TGI (PC-3 prostate): > 10 µM
TGI (RPMI-8226 leukemia): > 10 µM
TGI (RXF 393 renal): > 10 µM
TGI (SF-268 CNS): > 10 µM
TGI (SF-295 CNS): > 10 µM
TGI (SF-539 CNS): > 10 µM
TGI (SK-MEL-2 melanoma): > 10 µM
TGI (SK-MEL-28 melanoma): > 10 µM
TGI (SK-MEL-5 melanoma): > 10 µM
TGI (SK-OV-3 ovarian): > 10 µM
TGI (SN12C renal): > 10 µM
TGI (SNB-19 CNS): > 10 µM
TGI (SNB-75 CNS): > 10 µM
TGI (SR leukemia): > 10 µM
TGI (T-47D breast): > 10 µM
TGI (TK-10 renal): > 10 µM
TGI (U251 CNS): > 10 µM
TGI (UACC-257 melanoma): > 10 µM
TGI (UACC-62 melanoma): > 10 µM

COc1ccc(C(C)NNC(=O)c2ccncc2)c(OC)c1 (stereo unspecified)
TGI (786-0 renal): > 100 µM
TGI (A498 renal): > 100 µM
TGI (A549 NSCLC): > 100 µM
TGI (ACHN renal): > 100 µM
TGI (BT-549 breast): > 100 µM
TGI (CAKI-1 renal): > 100 µM
TGI (CCRF-CEM leukemia): > 100 µM
TGI (COLO 205 colon): > 100 µM
TGI (DU-145 prostate): > 100 µM
TGI (EKVX NSCLC): > 100 µM
TGI (HCC-2998 colon): > 100 µM
TGI (HCT-116 colon): > 100 µM
TGI (HCT-15 colon): > 100 µM
TGI (HL-60(TB) leukemia): > 100 µM
TGI (HOP-62 NSCLC): > 100 µM
TGI (HOP-92 NSCLC): > 100 µM
TGI (HS 578T breast): > 100 µM
TGI (HT29 colon): > 100 µM
TGI (IGROV1 ovarian): > 100 µM
TGI (K-562 leukemia): > 100 µM
TGI (KM12 colon): > 100 µM
TGI (LOX IMVI melanoma): > 100 µM
TGI (M14 melanoma): > 100 µM
TGI (MALME-3M melanoma): > 100 µM
TGI (MCF7 breast): > 100 µM
TGI (MDA-MB-231 breast): > 100 µM
TGI (MDA-MB-435): > 100 µM
TGI (MDA-N): > 100 µM
TGI (MOLT-4 leukemia): > 100 µM
TGI (NCI-H226 lung): > 100 µM
TGI (NCI-H23 lung): > 100 µM
TGI (NCI-H460 lung): > 100 µM
TGI (NCI-H522 lung): > 100 µM
TGI (NCI/ADR-RES ovarian): > 100 µM
TGI (OVCAR-3 ovarian): > 100 µM
TGI (OVCAR-4 ovarian): > 100 µM
TGI (OVCAR-5 ovarian): > 100 µM
TGI (OVCAR-8 ovarian): > 100 µM
TGI (PC-3 prostate): > 100 µM
TGI (RPMI-8226 leukemia): > 100 µM
TGI (RXF 393 renal): > 100 µM
TGI (SF-268 CNS): > 100 µM
TGI (SF-295 CNS): > 100 µM
TGI (SF-539 CNS): > 100 µM
TGI (SK-MEL-2 melanoma): > 100 µM
TGI (SK-MEL-28 melanoma): > 100 µM
TGI (SK-MEL-5 melanoma): > 100 µM
TGI (SK-OV-3 ovarian): > 100 µM
TGI (SN12C renal): > 100 µM
TGI (SNB-19 CNS): > 100 µM
TGI (SNB-75 CNS): > 100 µM
TGI (SR leukemia): > 100 µM
TGI (SW-620 colon): > 100 µM
TGI (T-47D breast): > 100 µM
TGI (TK-10 renal): > 100 µM
TGI (U251 CNS): > 100 µM
TGI (UACC-257 melanoma): > 100 µM
TGI (UACC-62 melanoma): > 100 µM
TGI (UO-31 renal): > 100 µM

CC(=O)Nc1ccc(C(=O)NN2C(=O)C(Cl)C2c2ccccc2)cc1 (stereo unspecified)
TGI (786-0 renal): > 100 µM
TGI (A498 renal): > 100 µM
TGI (A549 NSCLC): > 100 µM
TGI (ACHN renal): > 100 µM
TGI (CAKI-1 renal): > 100 µM
TGI (CCRF-CEM leukemia): > 100 µM
TGI (COLO 205 colon): > 100 µM
TGI (DLD-1 colon): > 100 µM
TGI (DMS 273 small cell lung): > 100 µM
TGI (EKVX NSCLC): > 100 µM
TGI (HCT-116 colon): > 100 µM
TGI (HL-60(TB) leukemia): > 100 µM
TGI (HOP-62 NSCLC): > 100 µM
TGI (HOP-92 NSCLC): > 100 µM
TGI (HT29 colon): > 100 µM
TGI (IGROV1 ovarian): > 100 µM
TGI (K-562 leukemia): > 100 µM
TGI (KM20L2 colon): > 100 µM
TGI (LOX IMVI melanoma): > 100 µM
TGI (LXFL 529 NSCLC): > 100 µM
TGI (M14 melanoma): > 100 µM
TGI (M19-MEL melanoma): > 100 µM
TGI (MALME-3M melanoma): > 100 µM
TGI (MOLT-4 leukemia): > 100 µM
TGI (NCI-H226 lung): > 100 µM
TGI (NCI-H23 lung): > 100 µM
TGI (NCI-H460 lung): > 100 µM
TGI (NCI-H522 lung): > 100 µM
TGI (OVCAR-3 ovarian): > 100 µM
TGI (OVCAR-4 ovarian): > 100 µM
TGI (OVCAR-5 ovarian): > 100 µM
TGI (OVCAR-8 ovarian): > 100 µM
TGI (RXF 393 renal): > 100 µM
TGI (SF-268 CNS): > 100 µM
TGI (SF-295 CNS): > 100 µM
TGI (SF-539 CNS): > 100 µM
TGI (SK-MEL-2 melanoma): > 100 µM
TGI (SK-MEL-28 melanoma): > 100 µM
TGI (SK-MEL-5 melanoma): > 100 µM
TGI (SK-OV-3 ovarian): > 100 µM
TGI (SN12C renal): > 100 µM
TGI (SNB-19 CNS): > 100 µM
TGI (SNB-75 CNS): > 100 µM
TGI (SNB-78 CNS): > 100 µM
TGI (SW-620 colon): > 100 µM
TGI (TK-10 renal): > 100 µM
TGI (U251 CNS): > 100 µM
TGI (UACC-257 melanoma): > 100 µM
TGI (UACC-62 melanoma): > 100 µM
TGI (UO-31 renal): > 100 µM
